Measured values from patent US12103916B2, “Antifungal compounds” (University of Kentucky Research Foundation, priority 2016, dated 2024).
Converted amounts (≈) assume the structure as drawn. Where two headings read alike, the source gives them in different places.

Tests used:
[1] = system: C. albicans ATCC MYA-1003(R); assay: MIC determination, strain G; format: cell-based, Candida albicans; details: strain G, AmB; for MIC: Candida albicans
Source text: (§1) For all of our azole derivatives we report their MIC-0 values against C. albicans ATCC 10231 (strain A) and all Aspergillus strains (K-M), which correspond to complete growth inhibition of these fungi. […] The MIC values presented for these five control drugs were either tested herein or correspond to our previously published data^5, 16 as indicated in Table 1.
(§2) Antifungal activity in the absence or presence of serum.
(§3) It is important to note that all comparisons to follow will be done by using the MIC values reported in μg/mL as the data were collected that way. However, we also present in parentheses in Table 2 the corresponding values in micromolar.
(§4) In this manuscript, we performed all activity comparisons by using the MIC values reported in μg/mL (Note: the corresponding MIC values are also provided in μM into parentheses in Tables 1, 2, S1, and S2).

Candida krusei ATCC 6258 = assay: MIC determination, strain I; format: cell-based; details: strain I, AmB; for MIC: Pichia kudriavzevii, ATCC6258
Method: (§5) The antifungal activity of our new azole compounds 1-9 and 24-41 was first evaluated against a panel of seven Candida albicans strains (A-G), three non-albicans Candida strains […], and three Aspergillus strains (K-M) in a concentration range of 0.03-31.2 μg/mL (Table 1). […] For all of our azole derivatives we report their MIC-0 values against C. albicans ATCC 10231 (strain A) and all Aspergillus strains (K-M), which correspond to complete growth inhibition of these fungi. […] The commercially available antifungals AmB, FLC, ITC, POS, and VOR were used as reference drugs for comparison. The MIC values presented for these five control drugs were either tested herein or correspond to our previously published data^5, 16 as indicated in Table 1.
(§6) Antifungal activity in the absence or presence of serum. The antifungal activity of the newly prepared alkylated piperazine/morpholine-azole hybrids 16-28, of intermediate 14 that we used to verify that only final compounds exert antifungal activity, as well as that of alkylated piperazine/morpholine derivatives 1-10 were first evaluated against a panel of seven C. albicans (ATCC 10231 (A), ATCC 64124(R) (B), ATCC MYA-2876(S) (C), ATCC 90819(R) (D), ATCC MYA-2310(S) (E), ATCC MYA-1237(R) (F), and ATCC MYA-1003(R) (G)), three non-albicans Candida (C. glabrata ATCC 2001 (H), C. krusei ATCC 6258 (I), and C. parapsilosis ATCC 22019 (J)), and three Aspergillus (A. flavus ATCC MYA-3631 (K), A. nidulans ATCC 38163 (L), and A. terreus ATCC MYA-3633 (M)) strains using a concentration range of 0.03-31.3 μg/mL (Table 2).
as §3, with “Commercially available antifungal agents such as AmB, CAS, FLC, and VOR were used as positive controls for comparison. […] It” for “It”
(§7) We used the commercially available antifungal agents such as AmB, caspofungin (CAS), FLC, and VOR as positive controls for comparison. For derivatives 5-16 as well as the reference drugs AmB and CAS, we reported MIC-0 values, which correspond to no visible growth. […] In this manuscript, we performed all activity comparisons by using the MIC values reported in μg/mL (Note: the corresponding MIC values are also provided in μM into parentheses in Tables 1, 2, S1, and S2).

[2] = system: Candida glabrata ATCC 2001; assay: MIC determination, strain H; format: cell-based; details: strain H, AmB; for MIC: Nakaseomyces glabratus, ATCC2001
Method: as §5, §6
as §3, with “Commercially available antifungal agents such as AmB, CAS, FLC, and VOR were used as positive controls for comparison. […] It” for “It”
as §7

[3] = system: Aspergillus terreus ATCC MYA-3633; assay: MIC determination, strain M; format: cell-based; details: for MIC: Aspergillus terreus
Source text: as §1, §2, §3, §4

BEAS-2B cell line = assay: Cytotoxicity assay, BEAS-2B; details: Ex.1 series, 15.6 μg/mL
Method: The positive control consisted of cells treated with Triton X-100® (TX, 12.5% v/v). The negative control consisted of cells treated with DMSO (no drug).
The positive control consisted of cells treated with Triton X-100® (TX, 20% v/v, pink). The negative control consisted of cells treated with DMSO (no drug, green). The experiments were performed in duplicate.
In vitro cytotoxicity assay.

[4] = system: C. albicans ATCC MYA-2876(S); assay: MIC determination, strain C; format: cell-based, Candida albicans; details: strain C, AmB; for MIC: Candida albicans
Method: as §5, §6
as §3, with “Commercially available antifungal agents such as AmB, CAS, FLC, and VOR were used as positive controls for comparison. […] It” for “It”
as §7

[5] = system: C. albicans ATCC 90819(R); assay: MIC determination, strain D; format: cell-based, Candida albicans; details: strain D, AmB; for MIC: Candida albicans, ATCC90819
Method: as §5, §6
as §3, with “Commercially available antifungal agents such as AmB, CAS, FLC, and VOR were used as positive controls for comparison. […] It” for “It”
as §7

[6] = system: C. albicans ATCC MYA-2310(S); assay: MIC determination, strain E; format: cell-based, Candida albicans; details: strain E, AmB; for MIC: Candida albicans
Method: as §5, §6
as §3, with “Commercially available antifungal agents such as AmB, CAS, FLC, and VOR were used as positive controls for comparison. […] It” for “It”
as §7

C. albicans ATCC 64124 = assay: MIC determination, strain B; format: cell-based, Candida albicans; details: strain B, AmB; for MIC: Candida albicans, ATCC64124
Method: as §5, §6
as §3, with “Commercially available antifungal agents such as AmB, CAS, FLC, and VOR were used as positive controls for comparison. […] It” for “It”
as §7

[7] = system: C. albicans ATCC MYA-1237(R); assay: MIC determination, strain F; format: cell-based, Candida albicans; details: strain F, AmB; for MIC: Candida albicans
Source text: as §1, §2, §3, §4

[8] = system: Candida albicans ATCC 10231; assay: MIC determination, strain A; format: cell-based; details: for MIC: Candida albicans, ATCC10231
Source text: as §1, §2, §3, §4

[9] = system: Candida parapsilosis ATCC 22019; assay: MIC determination, strain J; format: cell-based; details: Lodderomyces parapsilosis, ATCC22019, Table 2, strain J, Ex.2 compounds, AmB, CAS
Method: as §5, §6
as §3, with “Commercially available antifungal agents such as AmB, CAS, FLC, and VOR were used as positive controls for comparison. […] It” for “It”
as §7

[10] = system: Aspergillus nidulans ATCC 38163; assay: MIC determination, strain L; format: cell-based; details: ATCC38163, Table 2, strain L, all compounds and controls
Source text: as §1, §2, §3, §4

[11] = system: Aspergillus flavus ATCC MYA-3631; assay: MIC determination, strain K; format: cell-based; details: Table 2, all compounds and controls
Source text: as §1, §2, §3, §4

[12] = Table 2, all compounds and controls
[13] = read-out: MIC (MIC-0), in parentheses
[14] = Table 2, Ex.2 compounds, CAS, read-out: MIC (MIC-0)
[15] = Table 2, Ex.2 compounds, CAS, read-out: MIC (MIC-0), in parentheses

## C[C@@H]1[C@H](O)[C@@H](C)/C=C/C=C/C=C/C=C/C=C/C=C/C=C/[C@H](O[C@@H]2O[C@H](C)[C@@H](O)[C@H](N)[C@@H]2O)C[C@@H]2O[C@](O)(C[C@@H](O)C[C@@H](O)[C@H](O)CC[C@@H](O)C[C@@H](O)CC(=O)O[C@H]1C)C[C@H](O)[C@H]2C(=O)O [AmB, amphotericin B]
[1]; Table 1
  MIC (MIC-0): 3.9 µg/mL (≈ 4.22 µM)
[1]; Table 2, Ex.2 compounds, CAS
  MIC (MIC-0): 3.9 µg/mL (≈ 4.22 µM)
  MIC (MIC-0), in parentheses: (4.2) micromolar
Candida krusei ATCC 6258; Table 1
  MIC (MIC-0): 3.9 µg/mL (≈ 4.22 µM)
Candida krusei ATCC 6258; Table 2, Ex.2 compounds, CAS
  MIC (MIC-0): 3.9 µg/mL (≈ 4.22 µM)
  MIC (MIC-0), in parentheses: (4.2) micromolar
[2]; Table 1
  MIC (MIC-0): 1.95 µg/mL (≈ 2.11 µM)
[2]; Table 2, Ex.2 compounds, CAS
  MIC (MIC-0): 1.95 µg/mL (≈ 2.11 µM)
  MIC (MIC-0), in parentheses: (2.1) micromolar
[3]; Table 1, Ex.1 compounds and AmB, complete growth inhibition
  MIC (MIC-0): 3.9 µg/mL (≈ 4.22 µM)
[3]; [12]
  MIC (MIC-0): 3.9 µg/mL (≈ 4.22 µM)
  MIC (MIC-0), in parentheses: (4.2) micromolar
BEAS-2B cell line
  cell survival: 30%
[4]; Table 1
  MIC (MIC-0): 1.95 µg/mL (≈ 2.11 µM)
[4]; Table 2, Ex.2 compounds, CAS
  MIC (MIC-0): 1.95 µg/mL (≈ 2.11 µM)
  MIC (MIC-0), in parentheses: (2.1) micromolar
[5]; Table 1
  MIC (MIC-0): 0.975 µg/mL (≈ 1.06 µM)
[5]; Table 2, Ex.2 compounds, CAS
  MIC (MIC-0): 0.975 µg/mL (≈ 1.06 µM)
  MIC (MIC-0), in parentheses: (1.1) micromolar
[6]; Table 1
  MIC (MIC-0): 1.95 µg/mL (≈ 2.11 µM)
[6]; Table 2, Ex.2 compounds, CAS
  MIC (MIC-0): 1.95 µg/mL (≈ 2.11 µM)
  MIC (MIC-0), in parentheses: (2.1) micromolar
C. albicans ATCC 64124; Table 1
  MIC (MIC-0): 3.9 µg/mL (≈ 4.22 µM)
C. albicans ATCC 64124; Table 2, Ex.2 compounds, CAS
  MIC (MIC-0): 3.9 µg/mL (≈ 4.22 µM)
  MIC (MIC-0), in parentheses: (4.2) micromolar
[7]; Table 1
  MIC (MIC-0): 3.9 µg/mL (≈ 4.22 µM)
[7]; Table 2, Ex.2 compounds, CAS
  MIC (MIC-0): 3.9 µg/mL (≈ 4.22 µM)
  MIC (MIC-0), in parentheses: (4.2) micromolar
[8]; Table 1, strain A, Ex.1 compounds 1-9, 24-41 and AmB, complete growth inhibition
  MIC (MIC-0): 3.9 µg/mL (≈ 4.22 µM)
[8]; Table 2, strain A, Ex.2 compounds 1-10, 14, 16-28, AmB, CAS, no visible growth
  MIC (MIC-0): 3.9 µg/mL (≈ 4.22 µM)
[8]; Table 2, strain A, Ex.2 compounds, AmB, CAS
  MIC (MIC-0), in parentheses: (4.2) micromolar
[8]; Table 3, Ex.2 compounds, +10% FBS
  MIC, Candida albicans ATCC 10231 (A) (+10% FBS): 7.8 µg/mL (≈ 8.44 µM)
[8]; Table 3, Ex.2 compounds, no FBS
  MIC, Candida albicans ATCC 10231 (A) (no FBS): 3.9 µg/mL (≈ 4.22 µM)

## CC[C@H](C)C[C@H](C)CCCCCCCCC(=O)N[C@H]1C[C@@H](O)[C@@H](NCCN)NC(=O)[C@@H]2[C@@H](O)CCN2C(=O)[C@H]([C@H](O)CCN)NC(=O)[C@H]([C@H](O)[C@@H](O)c2ccc(O)cc2)NC(=O)[C@@H]2C[C@@H](O)CN2C(=O)[C@H]([C@@H](C)O)NC1=O [CAS, caspofungin]
[9]; read-out: MIC (MIC-0)
  MIC: 1.95 µg/mL
[9]; [13]
  MIC: 1.6 µM
[1]; [14]
  MIC: 0.48 µg/mL
[1]; [15]
  MIC: 0.4 µM
Candida krusei ATCC 6258; [14]
  MIC: 0.48 µg/mL
Candida krusei ATCC 6258; [15]
  MIC: 0.4 µM
[2]; [14]
  MIC: 0.06 µg/mL
[2]; [15]
  MIC: 0.05 µM
[3]; Table 2, all compounds and controls, read-out: MIC (MIC-0)
  MIC: > 31.3 µg/mL
[3]; Table 2, all compounds and controls, read-out: MIC (MIC-0), in parentheses
  MIC: > 25.8 µM
[10]; read-out: MIC (MIC-0)
  MIC: > 31.3 µg/mL
[10]; [13]
  MIC: > 25.8 µM
[4]; [14]
  MIC: 0.06 µg/mL
[4]; [15]
  MIC: 0.05 µM
[11]; read-out: MIC (MIC-0)
  MIC: > 31.3 µg/mL
[11]; [13]
  MIC: > 25.8 µM
[5]; [14]
  MIC: 0.12 µg/mL
[5]; [15]
  MIC: 0.1 µM
[6]; [14]
  MIC: 0.12 µg/mL
[6]; [15]
  MIC: 0.1 µM
C. albicans ATCC 64124; [14]
  MIC: 0.24 µg/mL
C. albicans ATCC 64124; [15]
  MIC: 0.2 µM
[7]; [14]
  MIC: 0.24 µg/mL
[7]; [15]
  MIC: 0.2 µM
[8]; Table 2, strain A, Ex.2 compounds 1-10, 14, 16-28, AmB, CAS, no visible growth, read-out: MIC (MIC-0)
  MIC: 0.975 µg/mL
[8]; Table 2, strain A, Ex.2 compounds, AmB, CAS, read-out: MIC (MIC-0), in parentheses
  MIC: 0.8 µM
